Reference: US4623639A (Hoffmann-La Roche Inc., priority 1983, dated 1986)
pIC50: −log10 of the molar value. Where a name gives a salt, the structure may show the parent alone.

Tests used:
[1] = biological target: T1, Human granulocyte elastase (Homo sapiens, UniProt P08246); assay: Assay of the inhibition of human granulocyte elastase (succinyl (Ala)3-p-nitroanilide cleavage); type: biochemical; settings: succinyl (Ala)3-p-nitroanilide substrate, 0.2M Tris HCl pH 8.0, 37° C., 1 hour; read-out: IC50 (concentration required to give 50% inhibition)
T1 sequence (P08246 30-267): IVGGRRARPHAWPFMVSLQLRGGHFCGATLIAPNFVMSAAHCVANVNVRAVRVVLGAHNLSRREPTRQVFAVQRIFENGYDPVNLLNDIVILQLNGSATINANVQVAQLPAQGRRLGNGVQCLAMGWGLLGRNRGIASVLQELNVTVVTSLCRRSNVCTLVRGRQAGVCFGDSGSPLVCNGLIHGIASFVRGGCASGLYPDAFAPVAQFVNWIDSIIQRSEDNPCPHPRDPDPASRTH
Method: ASSAY OF THE INHIBITION OF HUMAN GRANULOCYTE ELASTASE TEST METHOD
This assay is based on the method of J. Bieth, B. Spiess and C. G. Wermuth, Biochem. 11, (1974), 350.
Succinyl (Ala)3 -p-nitroanilide (20 μl of a 125 mM solution in N-methylpyrrolidone) was diluted in buffer (3 ml, 0.2M Tris HCl, pH 8.0) and warmed to 37° C. Human granulocyte elastase (4 μg in 20 μl of buffer) was added to initiate the reaction, which was terminated after 1 hour at 37° C. by the addition of glacial acetic acid (100 μl). The p-nitroaniline released was determined by measuring the extinction of the solution at 410 nm by means of a spectrophotometer. The compounds of the present invention, in 50 μl of methanol, were added to the buffered substrate prior to the addition of the human granulocyte elastase and the substrate cleavage rate was compared with solvent controls. The concentration of compound of the present invention required to give 50% inhibition was determined.

male mice = assay: Maximum tolerated dose test (no gross behavioural effects); type: in vivo; settings: observed 6 hours and 24 hours after administration
Method: MAXIMUM TOLERATED DOSE TEST TEST METHOD
This test determines the maximum acute dose of a compound of this invention which causes no gross behavioural effects.
Groups of 3 male mice are administered 400 mg/kg and 100 mg/kg of a compound of this invention subcutaneously, intravenously or intraperitoneally. The mice are observed periodically during the 6 hours after the administration and 24 hours after the administration. Evidence of stimulation, sedation, loss of righting reflex, convulsions, tremor, death and other gross effects are noted. If effects are observed, the compound is tested at lower dosages in order to determine the no gross effect level. The results are expressed as the maximum dose administered in mg/kg which causes no gross behavioural effects.

| SMILES | pIC50 [1] | dosage at which no behavioural effects were observed (male mice; intraperitoneally) [mg/kg] | dosage at which no behavioural effects were observed (male mice; intravenously) [mg/kg] | dosage at which no behavioural effects were observed (male mice; subcutaneously) [mg/kg] |
| --- | --- | --- | --- | --- |
| CC(C)[C@@H](C=O)NC(=O)[C@@H]1CCCN1C(=O)[C@H](CCCCNC(=O)c1ccccc1C(=O)O)NS(=O)(=O)C12CC3CC(CC(C3)C1)C2 [N^α -(1-adamantylsulphonyl)-N^ε -(2-carboxybenzoyl)-L-lysyl-L-prolylvalinal] | 7.05 |  |  |  |
| CC(C)CNC(=O)[C@@H]1CCCN1C(=O)[C@H](CCCCNC(=O)CCC(=O)O)NCCC12CC3CC(CC(C3)C1)C2 [N^α -(1-adamantylethyl)-N^ε -succinyl-L-lysyl-L-proline isobutylamide] | 5.35 | 50 |  |  |
| CC(C)[C@@H](C=O)NC(=O)[C@@H]1CCCN1C(=O)[C@H](CCCCNC(=O)CCC(=O)O)NS(=O)(=O)C12CC3CC(CC(C3)C1)C2 [N^α -(1-adamantylsulphonyl)-N^ε -succinyl-L-lysyl-L-prolyl-L-valinal] | 7.10 |  | 100 | 400 |
| CC(C)[C@@H](C=O)NC(=O)[C@@H]1CCCN1C(=O)[C@H](CCCCNC(=O)c1ccc(C(=O)O)cc1)NS(=O)(=O)C12CC3CC(CC(C3)C1)C2 [N^α -(1-adamantylsulphonyl)-N^ε -(4-carboxybenzoyl)-L-lysyl-L-prolyl-L-valinal] | 7.22 | 100 | 100 | 400 |
| CC(C)CNC(=O)[C@@H]1CCCN1C(=O)[C@H](CCCCNC(=O)CC[C@H](N)C(=O)O)NCCC1CCC2CC1C2(C)C (some centres unmarked) [dihydrobromide] | 4.80 |  |  |  |
| CC(C)[C@@H](C=O)NC(=O)[C@H](C)NC(=O)[C@H](CCCCNC(=O)c1ccc(C(=O)O)cc1)NS(=O)(=O)C12CC3CC(CC(C3)C1)C2 [N^α -(1-adamantylsulphonyl)-N^ε -(4-carboxybenzoyl)-L-lysyl-L-alanyl-L-valinal] | 7.30 | 100 | 100 | 400 |
| CC(C)[C@@H](C=O)NC(=O)[C@@H]1CCCN1C(=O)[C@H](CCCCNC(=O)CCCCC(=O)O)NS(=O)(=O)C12CC3CC(CC(C3)C1)C2 [N^α -(1-adamantylsulphonyl)-N^ε -adipoyl-L-lysyl-L-prolylvalinal] | 7.10 |  |  |  |
| CC(C)[C@@H](C=O)NC(=O)[C@H](C)NC(=O)[C@H](CCCCNC(=O)CCC(=O)O)NS(=O)(=O)C12CC3CC(CC(C3)C1)C2 [N^α -(1-adamantylsulphonyl)-N^ε -succinyl-L-lysyl-L-alanylvalinal] | 6.92 |  |  |  |
